Measurements: patent publication US11186588B2 (AYUMI PHARMACEUTICAL CORPORATION, priority 2017, dated 2021)

Columns and labels:
[1] = biological target: Recombinant BRD4 (44-168) protein (Homo sapiens (Human), UniProt O60885); assay: BRD4-H4KAc4 binding assay (amplified luminescence proximity homogeneous assay, AlphaScreen); conditions: 10 uM
Method: In order to evaluate BRD4 inhibitory activity of the present compounds, BRD4-H4KAc4 binding assay was carried out by an amplified luminescence proximity homogeneous assay. The specific method is described below.
H4KAc4 peptide (available from Toray Research Center, Inc., sequence SGRGK(Ac)GGK(Ac)GLGK(Ac)GGAK(Ac)RHR-K(Biotin)-NH2) was dissolved in 1×Assay buffer to prepare 1 mM H4KAc4 peptide stock solution.
N-terminal His tag/C-terminal FLAG tag-fused type Recombinant BRD4 (44-168) protein (available from Active Motif, Cat No. 31380) was diluted with 1×Assay buffer to 1,250-fold to prepare 250 nM BRD4 solution.
1% DMSO solution (control) and 2 μL of each compound solution in each concentration were added to each well of AlphaPlate-384 (from PerkinElmer, Cat No. 6008350). Next, 2 μL of 250 nM BRD4 solution was added to each well of AlphaPlate-384. Further, 2 μL of 250 nM H4KAc4 peptide solution was added to each well of AlphaPlate-384. After addition of the 250 nM H4KAc4 peptide solution, the mixture was allowed to stand at room temperature under light shielding for 60 minutes, and 4 μL of AlphaScreen beads were added to each well of AlphaPlate-384. After addition of the AlphaScreen beads, the mixture was allowed to stand at room temperature under light shielding for 60 minutes, emission at 520-620 nm upon excitation at 680 nm was detected by EnVision multilabel counter (from PerkinElmer), and binding of BRD4 and H4KAc4 was detected. Incidentally, the evaluation of each compound was carried out in duplicate (2 well per 1 compound).
(§1) The BRD4 inhibition rate (%) was calculated by the following equation using Microsoft EXCEL 2010. BRD4 inhibition rate (%)=100−{(luminescence intensity average value of each compound added well)−(average value of luminescence intensity of blank well))/(average value of luminescence intensity of control well)−(average value of luminescence intensity of blank well)}×100

[2] = tested on: NF-κB; assay: NF-κB reporter gene assay (TNF-α stimulated A549/NF-κB-luc cells); type: cell-based; conditions: Homo sapiens, TNF-α stimulation
Method: In order to evaluate NF-κB inhibitory activity of the present compounds, NF-κB reporter gene assay was carried out. The specific method is described below.
Gene recombinant human TNF-α (available from R&D systems, Cat No. 210-TA) was dissolved in D-PBS(−) (available from Wako Pure Chemical Industries, Ltd., Cat No. 293-72601) to prepare 100 μg/mL of TNF-α solution stock solution. 100 μg/mL of the TNF-α solution stock solution was diluted with the culture medium to prepare 10 ng/mL of TNF-α solution.
A549/NF-κB-luc cells (available from Panomics, Cat No. LR0051) were prepared at 375,000 cells/mL in the culture medium. The 375,000 cells/mL A549/NF-κB-luc cell suspension was seeded at 80 μL each on a white 96-well plate (available from Greiner, Cat No. 655073). One hour after seeding the cells, 10 μL of 2% DMSO solution (control) and each compound solution in each concentration were added to each well of the 96-well plate. One hour after the addition of each compound solution, 10 ng/mL of the TNF-α solution (10 μL) was added to each well of the 96-well plate. Three hours after the addition of 10 ng/mL of the TNF-α solution, 100 μL of Steady-Glo reagent (available from Promega, Cat No. E2510) was added to each well of the 96-well plate. After 30 to 90 minutes of the addition of the Steady-Glo reagent, the luminescence intensity of each well was detected by EnVision multilabel counter (available from PerkinElmer).
as §1, with “NF-κB” for “The BRD4”, “NF-κB” for “BRD4”, “well)}×100 In addition, IC50 values were calculated from the calculated NF-κB inhibition rate (%) using curve fitting software XLfit (available from IDBS).” for “well)}×100”

Structure (SMILES) | inhibition at 10 µM [1] [%] | IC50 [2] [nM]
Cc1sc2c(c1C)C(c1ccc(Cl)cc1)=NN(Cc1cccnc1C#N)c1nnc(C)n1-2 [Example 77, 3-((4-(4-chlorophenyl)-2,3,9-trimethyl-6H-thieno[2,3-e][1,2,4]triazolo[3,4-c][1,2,4]triazepin-6-yl)methyl)picolinonitrile] | 100 | 1950
Cc1sc2c(c1C)C(c1ccc(Cl)cc1)=NN(Cc1cccc(N(C)C)c1)c1nnc(C)n1-2 [Example 55, 3-((4-(4-chlorophenyl)-2,3,9-trimethyl-6H-thieno[2,3-e][1,2,4]triazolo[3,4-c][1,2,4]triazepin-6-yl)methyl)-N,N-dimethylaniline] | 100 | 2760
Cc1sc2c(c1C)C(c1cccc(Cl)c1)=NN(Cc1cccnc1)c1nnc(C)n1-2 [Example 73, 4-(3-chlorophenyl)-2,3,9-trimethyl-6-(pyridin-3-ylmethyl)-6H-thieno[2,3-e][1,2,4]triazolo[3,4-c][1,2,4]triazepine] | 100 | 246
COc1ccnc(CN2N=C(c3ccc(Cl)cc3)c3c(sc(C)c3C)-n3c(C)nnc32)c1 [Example 48, 4-(4-chlorophenyl)-6-((4-methoxypyridin-2-yl)methyl)-2,3,9-trimethyl-6H-thieno[2,3-e][1,2,4]triazolo[3,4-c][1,2,4]triazepine] | 100 | 297
CCOc1ncccc1CN1N=C(c2ccc(Cl)cc2)c2c(sc(C)c2C)-n2c(C)nnc21 [Example 87, 4-(4-chlorophenyl)-6-((2-ethoxypyridin-3-yl)methyl)-2,3,9-trimethyl-6H-thieno[2,3-e][1,2,4]triazolo[3,4-c][1,2,4]triazepine] | 100 | 1390
Cc1sc2c(c1C)C(c1ccc([N+](=O)[O-])cc1)=NN(Cc1cccnc1)c1nnc(C)n1-2 [Example 70, 2,3,9-trimethyl-4-(4-nitrophenyl)-6-(pyridin-3-ylmethyl)-6H-thieno[2,3-e][1,2,4]triazolo[3,4-c][1,2,4]triazepine] | 100 | 1830
Cc1sc2c(c1C)C(c1ccc(Cl)cc1)=NN(Cc1ccnc(N)c1)c1nnc(C)n1-2 [Example 57, 4-((4-(4-chlorophenyl)-2,3,9-trimethyl-6H-thieno[2,3-e][1,2,4]triazolo[3,4-c][1,2,4]triazepin-6-yl)methyl)pyridin-2-amine] | 100 | 558
Cc1nnc2n1-c1scc(CCO)c1C(c1ccc(N)cc1)=NN2Cc1cccnc1 [Example 108, 2-(4-(4-aminophenyl)-9-methyl-6-(pyridin-3-ylmethyl)-6H-thieno[2,3-e][1,2,4]triazolo[3,4-c][1,2,4]triazepin-3-yl)ethane-1-ol] |  | 4020
Cc1sc2c(c1C)C(c1ccc(Cl)cc1)=NN(Cc1ncccc1F)c1nnc(C)n1-2 [Example 23, 4-(4-chlorophenyl)-6-((3-fluoropyridin-2-yl)methyl)-2,3,9-trimethyl-6H-thieno[2,3-e][1,2,4]triazolo[3,4-c][1,2,4]triazepine] | 100 | 158
Cc1ccccc1CN1N=C(c2ccc(Cl)cc2)c2c(sc(C)c2C)-n2c(C)nnc21 [Example 11, 4-(4-chlorophenyl)-2,3,9-trimethyl-6-(2-methylbenzyl)-6H-thieno[2,3-e][1,2,4]triazolo[3,4-c][1,2,4]triazepine] | 100 | 291
Cc1sc2c(c1C)C(c1ccc(Cl)cc1)=NN(Cc1cccc(F)c1)c1nnc(C)n1-2 [Example 9, 4-(4-chlorophenyl)-6-(3-fluorobenzyl)-2,3,9-trimethyl-6H-thieno[2,3-e][1,2,4]triazolo[3,4-c][1,2,4]triazepine] | 100 | 17.6
CC(=O)Nc1ncccc1CN1N=C(c2ccc(Cl)cc2)c2c(sc(C)c2C)-n2c(C)nnc21 [Example 82, N-(3-((4-(4-chlorophenyl)-2,3,9-trimethyl-6H-thieno[2,3-e][1,2,4]triazolo[3,4-c][1,2,4]triazepin-6-yl)methyl)pyridin-2-yl)acetamide] | 100 | 135
Cc1sc2c(c1C)C(c1ccc(Cl)cc1)=NN(Cc1ccccc1)c1nnc(C)n1-2 [Example 3, 6-benzyl-4-(4-chlorophenyl)-2,3,9-trimethyl-6H-thieno[2,3-e][1,2,4]triazolo[3,4-c][1,2,4]triazepine] | 100 | 51.9
Cc1sc2c(c1C)C(c1ccc(Cl)cc1)=NN(Cc1ccc(Cl)cn1)c1nnc(C)n1-2 [Example 36, 4-(4-chlorophenyl)-6-((5-chloropyridin-2-yl)methyl)-2,3,9-trimethyl-6H-thieno[2,3-e][1,2,4]triazolo[3,4-c][1,2,4]triazepine] | 100 | 401
COc1cccc(CN2N=C(c3ccccc3)c3c(sc(C)c3C)-n3c(C)nnc32)c1 [Example 33, 6-(3-methoxybenzyl)-2,3,9-trimethyl-4-phenyl-6H-thieno[2,3-e][1,2,4]triazolo[3,4-c][1,2,4]triazepine] | 99.2 | 87.2
Cc1sc2c(c1C)C(c1ccc(Cl)cc1)=NN(Cc1cccc(F)n1)c1nnc(C)n1-2 [Example 21, 4-(4-chlorophenyl)-6-((6-fluoropyridin-2-yl)methyl)-2,3,9-trimethyl-6H-thieno[2,3-e][1,2,4]triazolo[3,4-c][1,2,4]triazepine] | 100 | 30.3
COc1cccc(CN2N=C(c3ccc(Cl)cc3)c3c(sc(C)c3C)-n3c(C)nnc32)c1 [Example 6, 4-(4-chlorophenyl)-6-(3-methoxybenzyl)-2,3,9-trimethyl-6H-thieno[2,3-e][1,2,4]triazolo[3,4-c][1,2,4]triazepine] | 100 | 86.4
Cc1sc2c(c1C)C(c1ccc(N)cc1)=NN(Cc1cncc(O)c1)c1nnc(C)n1-2 [Example 103, 5-((4-(4-aminophenyl)-2,3,9-trimethyl-6H-thieno[2,3-e][1,2,4]triazolo[3,4-c][1,2,4]triazepin-6-yl)methyl)pyridin-3-ol] |  | 289
Cc1c(CO)sc2c1C(c1ccc(N)cc1)=NN(Cc1cccnc1)c1nnc(C)n1-2 [Example 106, (4-(4-aminophenyl)-3,9-dimethyl-6-(pyridin-3-ylmethyl)-6H-thieno[2,3-e][1,2,4]triazolo[3,4-c][1,2,4]triazepin-2-yl)methanol] |  | 1840
Cc1sc2c(c1C)C(c1ccc(N)cc1)=NN(Cc1ccc(O)nc1)c1nnc(C)n1-2 [Example 104] |  | 3940
Cc1sc2c(c1C)C(c1ccc(N)cc1)=NN(Cc1cccnc1)c1nnc(CO)n1-2 [Example 105, (4-(4-aminophenyl)-2,3-dimethyl-6-(pyridin-3-ylmethyl)-6H-thieno[2,3-e][1,2,4]triazolo[3,4-c][1,2,4]triazepin-9-yl)methanol] |  | 4830
Cc1sc2c(c1CO)C(c1ccc(N)cc1)=NN(Cc1cccnc1)c1nnc(C)n1-2 [Example 107, (4-(4-aminophenyl)-2,9-dimethyl-6-(pyridin-3-ylmethyl)-6H-thieno[2,3-e][1,2,4]triazolo[3,4-c][1,2,4]triazepin-3-yl)methanol] |  | 2320
CC(=O)Nc1ccc(C2=NN(Cc3cncc(O)c3)c3nnc(C)n3-c3sc(C)c(C)c32)cc1 [Example 99, N-(4-(6-((5-hydroxypyridin-3-yl)methyl)-2,3,9-trimethyl-6H-thieno[2,3-e][1,2,4]triazolo[3,4-c][1,2,4]triazepin-4-yl)phenyl)acetamide] |  | 1640
